Source: patent US20260167614A1, “IDENTIFICATION OF SMALL MOLECULES THAT RECRUIT AND ACTIVATE RNASE L” (UNIVERSITY OF FLORIDA RESEARCH FOUNDATION, INCORPORATED, priority 2022, published 2026)

How the values were obtained:
[1] = test system: pre-miR-21; assay: In vitro C-Chem-CLIP; assay type: binding; settings: 32P-labeled pre-miR-21; 8 at 5 μM; 7 at 1, 5, 20 or 100 μM
Method: Direct target occupancy was further verified using C-Chem-CLIP. In this assay, the RNA-binding module was conjugated to a diazirine cross-linking module and an alkyne handle for purification, affording Chem-CLIP probe 8 (FIG. 8A).^18 Radioactively labeled pre-miR-21 was incubated with a constant concentration of 8 and increasing amounts of 7. After cross-linking by irradiation with UV light, the amount of pre-miR-21 pulled down by 8 was measured by its radioactive signal. If the two compounds (7 and 8) share the same binding site, the amount of pre-miR-21 in the pulled down fraction is depleted.
In Vitro C-Chem-CLIP. Growth medium (RPMI 1640 medium supplemented with 300 mg/L Lglutamine & 25 mM HEPES; Corning, catalog #10-041-CV)] was inactivated by heating to 95° C. for 10 min followed by slowly cooling to room temperature. […]
Copper-catalyzed click chemistry^10 was used to click the probes in each sample to biotinazide (1265-5, Click Chemistry Tools). […] Radioactive signal from both the bound RNA on the magnetic beads and the unbound RNA in the wash solutions were measured using a Beckman […] Coulter LS6500 Liquid Scintillation Counter. The percentage pulldown by Chem-CLIP probe was calculated according to equation 2: […]

[2] = test system: pre-miR-21; assay: RT-qPCR of pre-miR-21 in CRISPR-Control sgRNA MDA-MB-231 cells; assay type: cell-based; settings: 5 μM
Method: Two CRISPR-modified MDA-MB-231 cell lines with either a scrambled control guide RNA (“Control sgRNA”; RNase L is expressed) or with an RNase L-targeting guide RNA (“RNase L-Targeting sgRNA”; RNase L protein abundance is knocked down) were used to complete these studies.
MDA-MB-231 cells were treated with compound (0.1% DMSO final concentration) for 24 h, followed by removal of the compound-containing medium and redosing in growth medium for an additional 24 h (total treatment period of 48 h), with the exception of invasion assays in which the cells were treated overnight. For the time-course experiment, MDA-MB-231 cells were treated for the indicated lengths of time. MCF-10A cells, also used in invasion assays, were treated with compound overnight (0.1% DMSO final concentration).
RNA Isolation and Quantitative Real-Time Polymerase Chain Reaction (RT-qPCR). MDAMB-231 cells were cultured as described in “Cell Culture.” After compound treatment, total RNA was extracted using a Quick-RNA Miniprep Kit (Zymo) per the manufacturer's instructions. […] RT-qPCR was performed on a QuantStudio5™ Real-Time PCR Instrument (Applied Biosystems) using Power SYBR Green Master Mix (Applied Biosystems), and the resulting data were analyzed using the ΔΔCt method.

[3] = target: pre-miR-21; assay: Binding affinity measurement by intrinsic fluorescence; settings: WT pre-miR-21
Method: Binding Affinity Measurements. Binding assays were completed as previously described.8 Briefly, WT pre-miR-21 (5′-[…]-3′) or a mutant pre-miR-21 with the A-bulge and U-bulges replaced with base pairs (5′-[…]-3′) was folded in 1× Assay Buffer (8 mM Na2HPO4, pH 7.0, 185 mM NaCl, and 1 mM EDTA) by heating at 95° C. for 1 min followed by cooling on ice for 10 min. After cooling, BSA was added to a final concentration of 40 μg/mL. RiboTAC 7 was then added to the solution to a final concentration of 0.5 μM. The RNA solution was serial diluted with 1× Assay Buffer supplemented with 40 μg/mL BSA and 0.5 μM of 7. The solutions were incubated in the dark for 30 min at room temperature before being transferred to a black 384-well plate (Corning 4514, low-volume, non-binding) Fluorescence intensity was measured using a Tecan infinite M1000 Pro (Gain: 100) with excitation wavelength of 380 nm and emission wavelength of 425 nm. Binding affinity was calculated using Equation 1, as previously described:8
where I and I0 are the measured fluorescence intensity of compound with or without RNA, respectively, Δε is the difference between the fluorescence intensity with infinite concentration of RNA versus without RNA, [FL]0 and [RNA]0 are the concentrations of small molecule and RNA, respectively, and Kd is the dissociation constant.

Kd [3]: 4.6 ± 2.1 µM
Structure (SMILES): CNC(=O)[C@H](c1ccccc1)N(C)Cc1ccc(-c2cccc(-c3sccc3NC(=O)CCOCCOCCOCCC(=O)NCCN3CCN(c4ccc5nc(-c6c(N)c7c(F)cccc7[nH]c6=O)[nH]c5c4)CC3)c2)cc1 [RiboTAC 7, (S)—N-(2-(4-(2-(4-amino-5-fluoro-2-oxo-1,2-dihydroquinolin-3-yl)-1H-benzo[d]imidazol-6-yl)piperazin-1-yl)ethyl)-3-(2-(2-(3-((2-(4′-((methyl(2-(methylamino)-2-oxo-1-phenylethyl)amino)methyl)-[1,1′-biphenyl]-3-yl)thiophen-3-yl)amino)-3-oxopropoxy)ethoxy)ethoxy)propanamide]
amount of pre-miR-21 cross-linked to Chem-CLIP probe 8 in competition [1]: dose-dependently reduced the amount of pre-miR-21 cross-linked to 8
reduction of pre-miR-21 abundance ([2]; 48 h treatment, RNase L expressed): ~30%
treatment time at which pre-miR-21 degradation is first detectable ([2]; time-course): 48 h
